# The OPERA property sets (Mansouri et al. 2018)
# Conditions: not given
row,SMILES,logP
1,CCOC(=O)CC(CO)C(CC)c1cncn1C (stereo not given),0.73
2,CC(=O)OCOc1ccccc1C(N)=O,0.52
3,CC(C)(C)C(=O)OCOc1ccccc1C(N)=O,2
4,CCCC(=O)OCOc1ccccc1C(N)=O,1.66
5,CCC(C(=O)OCCc1ccccc1)C(COC(=O)c1ccccc1)Cc1cncn1C (stereo not given),4.6

# Continued, values first:
row,logP,SMILES
1,1.27,O=C(NCN1CCOCC1)c1ccccc1O
2,1.81,CC(C)(C)C(=O)OCOc1ccccc1C(=O)NCN1CCOCC1
3,1.34,CCCC(=O)OCOc1ccccc1C(=O)NCN1CCOCC1
4,0.27,CC(=O)OCOc1ccccc1C(=O)NCN1CCOCC1

# Same assay, conditions: 23 °C
row,solubility [µM],SMILES
1,2430,CC(C)(C)C(=O)OCOc1ccccc1C(N)=O
